Patent US20230406885A1, “CYCLIC PEPTIDES FOR TRAPPING INTERLEUKIN-1 BETA” (MERCK SHARP & DOHME LLC, priority 2022, published 2023)
*1 amine or outer side, *2 acyl side, *3 side chain or, on linkers, in order; H or OH if unused. Where a SMILES comes first, the peptide text is derived from it. [ ]: non-standard residue; d: D form. Trp(4-Cl)(βS-Me) = C[C@@H](c1c[nH]c2cccc(Cl)c12)[C@H](N)C(=O)O; Trp(βS-Me,4-F) = C[C@@H](c1c[nH]c2cccc(F)c12)[C@H](N)C(=O)O; Bip(4'-COOH) = N[C@@H](Cc1ccc(-c2ccc(C(=O)O)cc2)cc1)C(=O)O; X6 = O=C(O)C12CC(c3ccc(C[C@H](N[*:1])C(=O)[*:2])cc3)(C1)C2; X1 = CC(=O)N1CCN(c2ccc(C[C@H](N[*:1])C(=O)[*:2])cn2)CC1; 1Nal(3S-Me) = C[C@@H](c1cccc2ccccc12)[C@H](N)C(=O)O; Phe(4-COOH) = N[C@@H](Cc1ccc(C(=O)O)cc1)C(=O)O; Pro(4R-NH2) = N[C@H]1CN[C@H](C(=O)O)C1; X7 = O=C([C@H](CCN1CCOCC1)N[*:1])[*:2]; AEF = NCCOc1ccc(C[C@H](N)C(=O)O)cc1; hTyr = N[C@@H](CCc1ccc(O)cc1)C(=O)O; hCha = N[C@@H](CCC1CCCCC1)C(=O)O; Cha = N[C@@H](CC1CCCCC1)C(=O)O; dDab = NCC[C@@H](N)C(=O)O; Orn = NCCC[C@H](N)C(=O)O; dNMeA = CN[C@H](C)C(=O)O; Dap = NC[C@H](N)C(=O)O; Aib = CC(C)(N)C(=O)O

biological target: T1, Recombinant human IL-1β (Homo sapiens, UniProt P01584); experiment: IL-6 assay in MRC5 cells: inhibition of IL-1β induced IL-6 secretion (AlphaLISA); assay type: cell-based; conditions: inhibition of IL-1β induced IL-6 secretion in MRC5 cells; read-out: MRC5 IC50
T1 construct: purchased BioLegend 579404
T1 sequence (P01584 117-269): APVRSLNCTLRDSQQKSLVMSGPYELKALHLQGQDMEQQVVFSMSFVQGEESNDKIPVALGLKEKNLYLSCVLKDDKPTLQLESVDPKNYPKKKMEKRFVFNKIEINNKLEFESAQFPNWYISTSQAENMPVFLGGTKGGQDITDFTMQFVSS
Summary of the method: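 IL-1β at 2×EC80 in seeding medium (EMEM, 0.025% BSA) preincubated 1 h at ambient temperature with compound, then 3000 MRC5 cells/well added and incubated overnight at 37 °C, 5% CO2. IL-6 in conditioned medium quantified by AlphaLISA; IC50 from 4-parameter logistic fit.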

SMILES | IC50 [nM]
CC(=O)N1CCN(c2ccc(C[C@@H]3NC(=O)[C@H](CCC4CCCCC4)NC(=O)[C@@H](C)NC(=O)[C@H](CC(C)C)NC(=O)[C@H](CCCN)NC(=O)[C@H](Cc4ccc(-c5ccc(C(=O)O)cc5)cc4)NC(=O)CNC(=O)[C@@H](C)N(C)C(=O)[C@H](CC(=O)O)NC(=O)[C@H]([C@@H](C)c4cccc5ccccc45)NC(=O)[C@@H]4C[C@@H](N)CN4C(=O)CNC(=O)[C@H](Cc4ccc(C(=O)O)cc4)NC(=O)[C@H](Cc4c[nH]c5ccccc45)NC3=O)cn2)CC1 [Example 182] (cyclo([X1]W[Phe(4-COOH)]G[Pro(4R-NH2)][1Nal(3S-Me)]D[dNMeA]G[Bip(4'-COOH)][Orn]L[dA][hCha])) | 0.013
C[C@@H]1C(=O)NCC(=O)N[C@@H](Cc2ccc(-c3ccc(C(=O)O)cc3)cc2)C(=O)N[C@@H](CC2CCCCC2)C(=O)NCC(=O)N[C@H](CCN)C(=O)N[C@@H](CCC2CCCCC2)C(=O)N[C@@H](Cc2ccc(C34CC(C(=O)O)(C3)C4)cc2)C(=O)N[C@@H](Cc2c[nH]c3ccccc23)C(=O)N[C@@H](Cc2ccc(C(=O)O)cc2)C(=O)NCC(=O)N2C[C@H](N)C[C@H]2C(=O)N[C@@H]([C@@H](C)c2cccc3ccccc23)C(=O)N[C@@H](CC(=O)O)C(=O)N1C [Example 189] (cyclo([X6]W[Phe(4-COOH)]G[Pro(4R-NH2)][1Nal(3S-Me)]D[dNMeA]G[Bip(4'-COOH)][Cha]G[dDab][hCha])) | 0.019
CC(=O)NCCOc1ccc(C[C@@H]2NC(=O)[C@H](CCc3ccc(O)cc3)NC(=O)C(C)(C)NC(=O)[C@H](CCCN)NC(=O)[C@H](Cc3c[nH]c4ccccc34)NC(=O)[C@H](Cc3ccc(-c4ccc(C(=O)O)cc4)cc3)NC(=O)CNC(=O)[C@@H](C)N(C)C(=O)[C@H](CC(=O)O)NC(=O)[C@H]([C@@H](C)c3cccc4ccccc34)NC(=O)[C@@H]3C[C@@H](N)CN3C(=O)CNC(=O)[C@H](Cc3ccc(C(=O)O)cc3)NC(=O)[C@H](Cc3c[nH]c4ccccc34)NC2=O)cc1 [Example 127] (cyclo([AEF](Ac)W[Phe(4-COOH)]G[Pro(4R-NH2)][1Nal(3S-Me)]D[dNMeA]G[Bip(4'-COOH)]W[Orn][Aib][hTyr])) | 0.432
CC(=O)NCCOc1ccc(C[C@@H]2NC(=O)[C@H](CCc3ccc(O)cc3)NC(=O)[C@@H](C)NC(=O)[C@H](CO)NC(=O)[C@H](Cc3c[nH]c4ccccc34)NC(=O)[C@H](Cc3ccc(-c4ccc(C(=O)O)cc4)cc3)NC(=O)CNC(=O)[C@@H](C)N(C)C(=O)[C@H](CC(=O)O)NC(=O)[C@H]([C@@H](C)c3c[nH]c4cccc(Cl)c34)NC(=O)[C@@H]3C[C@@H](N)CN3C(=O)CNC(=O)[C@H](Cc3ccc(C(=O)O)cc3)NC(=O)[C@H](Cc3c[nH]c4ccccc34)NC2=O)cc1 [Example 151] (cyclo([AEF](Ac)W[Phe(4-COOH)]G[Pro(4R-NH2)][Trp(4-Cl)(βS-Me)]D[dNMeA]G[Bip(4'-COOH)]WS[dA][hTyr])) | 0.0759
CC(=O)NCCOc1ccc(C[C@@H]2NC(=O)[C@H](CCc3ccc(O)cc3)NC(=O)C(C)(C)NC(=O)[C@H](CN)NC(=O)[C@H](Cc3c[nH]c4ccccc34)NC(=O)[C@H](Cc3ccc(-c4ccc(C(=O)O)cc4)cc3)NC(=O)CNC(=O)[C@@H](C)N(C)C(=O)[C@H](CC(=O)O)NC(=O)[C@H]([C@@H](C)c3cccc4ccccc34)NC(=O)[C@@H]3C[C@@H](N)CN3C(=O)CNC(=O)[C@H](Cc3ccc(C(=O)O)cc3)NC(=O)[C@H](Cc3c[nH]c4ccccc34)NC2=O)cc1 [Example 117] (cyclo([AEF](Ac)W[Phe(4-COOH)]G[Pro(4R-NH2)][1Nal(3S-Me)]D[dNMeA]G[Bip(4'-COOH)]W[Dap][Aib][hTyr])) | 0.16
CC(=O)NCCOc1ccc(C[C@@H]2NC(=O)CNC(=O)[C@@H](C)NC(=O)[C@H](CCN3CCOCC3)NC(=O)[C@H](Cc3c[nH]c4ccccc34)NC(=O)[C@H](Cc3ccc(-c4ccc(C(=O)O)cc4)cc3)NC(=O)CNC(=O)[C@@H](C)N(C)C(=O)[C@H](CC(=O)O)NC(=O)[C@H]([C@@H](C)c3c[nH]c4cccc(F)c34)NC(=O)[C@@H]3C[C@@H](N)CN3C(=O)CNC(=O)[C@H](Cc3ccc(C(=O)O)cc3)NC(=O)[C@H](Cc3c[nH]c4ccccc34)NC2=O)cc1 [Example 162] (cyclo([AEF](Ac)W[Phe(4-COOH)]G[Pro(4R-NH2)][Trp(βS-Me,4-F)]D[dNMeA]G[Bip(4'-COOH)]W[X7][dA]G)) | 0.749
C[C@@H]1C(=O)NCC(=O)N[C@@H](Cc2ccc(-c3ccc(C(=O)O)cc3)cc2)C(=O)N[C@@H](CC2CCCCC2)C(=O)NCC(=O)N[C@H](CCN)C(=O)N[C@@H](CCc2ccc(O)cc2)C(=O)N[C@@H](Cc2ccc(C34CC(C(=O)O)(C3)C4)cc2)C(=O)N[C@@H](Cc2c[nH]c3ccccc23)C(=O)N[C@@H](Cc2ccc(C(=O)O)cc2)C(=O)NCC(=O)N2C[C@H](N)C[C@H]2C(=O)N[C@@H]([C@@H](C)c2cccc3ccccc23)C(=O)N[C@@H](CC(=O)O)C(=O)N1C [Example 190] (cyclo([X6]W[Phe(4-COOH)]G[Pro(4R-NH2)][1Nal(3S-Me)]D[dNMeA]G[Bip(4'-COOH)][Cha]G[dDab][hTyr])) | 0.018
